Assays:
[1] = tested on: patient who had loss of taste and smell from COVID-19; assay: Psychophysical smell test, forced-choice, three-stimuli, stepwise-staircase technique (detection and recognition thresholds for four odors); type: in vivo, human
Text: The Patient initially reported their sensory dysfunction as either loss of taste (i.e., flavor) and/or smell function. This subjective response was documented by objective psychophysical measurements of olfactory function administered to each patient by use of a forced-choice, three-stimuli, stepwise-staircase technique in a fixed, controlled design (1, 2). Efficacy of this technique and results of testing were previously documented in a double-blind clinical trial (2). Four odors were used; they were pyridine (dead-fish odor), nitrobenzene (bitter-almond odor), thiophene (petroleum-like odor) and amyl acetate (banana-oil odor). Detection thresholds (DT), and recognition thresholds (RT) values for each odor were determined as previously described (1, 2). Thresholds were converted into bottle units (BU) as previously described (2) and results reported as M of correct responses for each odor in each treatment group. References: (1) Henkin, R. I. Evaluation and treatment of human olfactory dysfunction, in Otolaryngology (English, G. M. Ed.), Lip pincott, Philadelphia, 1993, Vol. 2, pp. 1-86. (2) Henkin, R. I., Schecter, P. J., Friedewald, W. T., DeMets, D. L., Raff, M. S. A double blind study of the effects of zinc sulfate on taste and smell dysfunction. Amer. J. Med. Sci. 1976; 272: 285-299.
(§1) Theophylline was administered to a patient who had loss of taste and smell from COVID-19. A formulation containing 80 μg of theophylline was administered via two actuations from nasal spray device once per day. Prior to the initial administration of theophylline, a baseline smell test was performed. A follow-up smell test was performed 3 months after the initial administration. […] The patient's detection threshold (DT) and recognition threshold (RT) for pyridine (Pyr), nitrobenzene (NO2B), thiophene (Thio) and amyl acetate (AA) was determined before treatment (pre) and after treatment (3M). In all four odorant tests, the patient's detection threshold and recognition threshold improved. An improvement of 1 bottle unit means that a patient could detect and/or recognize an odorant that was 10 times lower in concentration, when compared to baseline. For example, the recognition threshold (RT) of AA improved by 8 bottle units, also equivalent to an improvement of 8 orders of magnitude. In this case, the patient could detect a concentration of AA that was 10^8 lower in concentration. Bottle unit numbers that are 5 or lower are considered to be in the range of normal.

[2] = tested on: patient who had loss of taste and smell from COVID-19; assay: Side effects reported during intranasal theophylline treatment; type: in vivo, human; settings: 80 μg theophylline via nasal spray once per day, 3 months
Experimental: as §1

[3] = 3 months after initial administration, 80 μg theophylline nasal spray once per day, Pre value 10
[4] = 3 months after initial administration, 80 μg theophylline nasal spray once per day, Pre value 11
[5] = 3 months after initial administration, 80 μg theophylline nasal spray once per day, Pre value 12

Cn1c(=O)c2[nH]cnc2n(C)c1=O [theophylline]
DT Thio (detection threshold, thiophene) [1, 3]: 4 bottle units
RT Thio (recognition threshold, thiophene) [1, 3]: 4 bottle units
DT AA (detection threshold, amyl acetate) [1, 4]: 4 bottle units
DT NO2B (detection threshold, nitrobenzene) [1, 4]: 9 bottle units
RT Pyr (recognition threshold, pyridine) [1, 4]: 7 bottle units
DT Pyr (detection threshold, pyridine) ([1]; 3 months after initial administration, 80 μg theophylline nasal spray once per day, Pre value 11, 5 or lower is normal): 7 bottle units
RT AA (recognition threshold, amyl acetate) [1, 5]: 4 bottle units
RT NO2B (recognition threshold, nitrobenzene) [1, 5]: 9 bottle units
improvement of recognition threshold (RT) of AA ([1]; 3 months vs baseline, 80 μg theophylline nasal spray once per day): 8 bottle units
factor by which the detectable concentration of AA was lower ([1]; 3 months vs baseline, 1 bottle unit = 10 times lower concentration): 10^8
detection threshold and recognition threshold in all four odorant tests ([1]; 3 months vs baseline, pyridine, nitrobenzene, thiophene, amyl acetate): improved
side effects [2]: No side effects
